Measured values: patent US11820799B2, “Malassezia factor with antibiotic activity” (priority 2021, dated 2023)

Test system: S. aureus
Experiment: S. aureus growth curves / MIC with oxacillin in TSB
Type: cell-based, Staphylococcus aureus
Protocol: S. aureus growth curves: S. aureus growth curves were performed on a BioTek Synergy™ H1 monochromator-based multi-mode microplate reader in non-treated flat bottom 96-well plates. S. aureus grown overnight in 5 mL of TSB was subcultured 1:10 in fresh TSB for 1 h. Cells were collected through centrifugation at 5,000×g for 1 min and resuspended in fresh TSB. For 0 μg/mL oxacillin, 4 μg/mL oxacillin, and 16 μg/mL oxacillin TSB was utilized with a starting OD600 of 0.02.

SMILES: Cc1onc(-c2ccccc2)c1C(=O)N[C@@H]1C(=O)N2[C@@H]1SC(C)(C)[C@@H]2C(=O)O [oxacillin]
- growth of CFS-resistant strains with Sa-rel mutations (EVOL-P1 Y1 and IsoA) (4 μg/mL oxacillin in TSB): able to grow robustly
- growth of CFS-resistant strains with Sa-rel mutations (EVOL-P1 Y1 and IsoA) (16 μg/mL oxacillin in TSB): able to grow robustly
- MIC (Staphylococcus aureus, ancestral strain, rich media (tryptic soy broth, TSB)): 4 to 8 µg/mL
